Experimental data as given in patent publication US9689042B2, “Use of glycolytic pathways for inhibiting or measuring oncogenic signaling” (The Regents of the University of California, priority 2012, dated 2017).
Entries after “also recorded” stand apart in the source; their conditions may differ.

Tests used:
[1] = system: T4-2 cells; assay: Mitochondrial activity (MitoTracker oxidation) assay in 3D lrECM; format: cell-based, human
Description: (§1) Cells suspended in 200 μl lrECM were seeded in 12 well glass-bottom plates (14 mm diameter; MatTek Corporation). Gels were overlaid with 500 μl H14 media and cultured for 10 days before each assay unless otherwise described.
For mitochondrial activity, we slightly modified the method described previously (Morici et al., 2007). Briefly, cells were incubated with 2 μM MitoTracker® Orange CM-H2 TMRos (Invitrogen) for 1 hour and fixed with PFA as above. Cells were counterstained with Hoechst 33342 (Invitrogen), which is known also to bind to DNA stoichiometrically, then MitoTracker and Hoechst staining were measured by taking z-section images from top to bottom of the gels using confocal microscopy.
(§2) In each assay, one well, containing only lrECM, was made for background measurements. Glucose uptake measured by 2DG uptake, lactate production and MitoTracker staining were normalized using total DNA levels, and presented relative to that of control (either S1 or non-treated T4-2 cells).

[2] = system: HCC70 cells; assay: 3D lrECM culture of HCC70 cells; format: cell-based, human; details: IA 2 μM, DON 20 μM
[3] = system: T4-2 cells; assay: Glucose uptake assay (IRDye800CW-2DG) in 3D lrECM; format: cell-based, human
Description: as §1
For glucose uptake assay, cells were incubated with 1 μM of IRDye800CW-2DG (LI-COR Biosciences) for 1 hour, fixed within gels with 4% paraformaldehyde (PFA) in PBS for 30 min. and stained with DRAQ5 (1:10000 dilution), an infrared dye that binds stoichiometrically to DNA, for 30 min. Cells were extensively washed with PBS, then IRDye800-2DG uptake together with DRAQ5 staining were measured by using Odyssey Infrared Imaging System (LI-COR Biosciences).
as §2

[4] = system: T4-2 cells; assay: Lactate production assay in 3D lrECM; format: cell-based, human
Description: as §1
For lactate production, on day 9, conditioned-media were harvested to measure lactate remaining in the 200 μl of the gel (assuming equilibrium between medium and gel, C0 nmol/μl). […] After 24 hours, total culture medium was harvested for measurement of final lactate concentrations (C nmol/μl) and total volumes (V μl) of the conditioned-media, and the cells in gel were fixed with PFA as above. Concentration of lactate in each sample was measured using a lactate assay kit (BioVision). Net lactate production within 24 hours (N) was calculated as follows: N=C×(V+200)−C0×200. Fixed cells were stained with DRAQ5, to measure total level of DNA as a surrogate for number of cells, and the staining was measured as above.
as §2

[5] = system: EGFR, β1 integrin, Akt, MEK, GLUT3, glycolytic enzymes in T4-2 cells; assay: Western blots of signaling intermediates, GLUT3 and metabolic enzymes in 3D lrECM cultures of T4-2 cells; format: cell-based, human; details: T4-2 cells, 3D lrECM
Description: (§3) Cell colonies were separated from lrECM gels by shaking in PBS containing 5 mM EDTA and the proteinase inhibitor cocktail set I (Calbiochem) on ice for 30 min. Cells were lysed in lysis buffer (1% NP-40, 1% deoxycholate, 2% SDS, 150 mM NaCl, 20 mM Tris-HCl [pH 7.4] plus 5 mM EDTA and protease inhibitor cocktail set I and phosphatase inhibitor cocktail set I [Calbiochem]) and sonicated three times for 30 sec each. Proteins were separated by SDS-PAGE, transferred to nitrocellulose membranes, and probed with antibodies against the following proteins: phosphorylated MEK, MEK, phosphorylated Akt, Akt, phosphorylated AMPK, AMPK, p70S6K, phosphorylated p70S6K, CHOP, EPAC1 (Cell Signaling), β1 integrin, EGFR, activated EGFR, HIF-1α, (Chemicon International), PFKP (Abgent), GAPDH, GLUT3 (GeneTex), LDHA, PDHE1α, DLAT, DLD, HIF-3α, Rap1, sAC, EPAC2, OGT, Lamin A/C (Santa Cruz Biotechnology), Aldolase (Polysciences), GFPT (ProteinTech Group), HIF-2α (Abcam), and HA-tag (Covance). After probing with HRP-conjugated secondary antibodies, blots were developed using SuperSignal West Femto chemiluminescence reagent (Pierce Biotechnology). Images were captured using Fluor Chem 8900 imager (Alpha Innotech).

[6] = system: signaling intermediates in MDA-MB-231 cells; assay: Western blots of signaling intermediates in MDA-MB-231 cells; format: cell-based, human; details: IA 40 μM, DON 20 μM
Description: as §3

[7] = system: MDA-MB-231 cells; assay: 3D lrECM culture of MDA-MB-231 cells; format: cell-based, human; details: IA 40 μM, DON 20 μM
[8] = system: T4-2 cells; details: T4-2 cells, 3D lrECM; for phenotypic reversion of the malignant phenotype: 2DG 4 mM, IA 20 μM, OX 50 mM, Azs 20 μM, DON 20 μM, BADGP 5 mM, TM 10 ng/ml, OGM 4 ng/ml, Rapa 0.01-1.0 μM
Description: HMT-3522 cells were cultured on tissue culture plastic (2D) and in 3D lrECM gels with H14 medium, a 1:1 mix of DMEM/F12 (UCSF Cell Culture Facility) supplemented with 250 ng/ml insulin, 10 μg/ml transferrin, 2.6 ng/ml sodium selenite, 0.1 nM β-estradiol, 1.4 μM hydrocortisone and 5 μg/ml prolactin but no serum. S1 cells were additionally supplemented with 10 ng/ml EGF. MDA-MB-231 and HCC70 cells were cultured in DMEM and RPMI1640, respectively, and were supplemented with 10% fetal bovine serum (FBS).
For 3D lrECM cultures, S1 and T4-2 cells were seeded at 840,000 and 600,000 cells per cm3 respectively in lrECM gel (Cultrex), overlaid with H14 medium. MDA-MB-231 and HCC70 cells were seeded at 625,000 cell per cm3 and overlaid with H14 medium supplemented with 1% FBS. Cells were used for each assay after 10 days, unless otherwise indicated.
Pieces of lrECM gel containing cell colonies were suspended in approximately the same volume of phosphate buffered saline (PBS) and directly spread on glass slides. After brief air-drying, colonies were fixed with 3.7% paraformaldehyde (PFA) in PBS at room temperature (RT) for 10 min, washed with PBS containing 0.1 mM glycine, and permeabilized with 1:1 methanol/acetone at −20° C. for 10 min. After blocking with IF buffer (0.2% Triton X-100, 0.1% BSA [radioimmunoassay grade], 0.05% Tween 20, 7.7 mM NaN3 in PBS) containing 10% goat serum and 1% goat F(ab′)2 anti-mouse immunoglobulin G (IgG; Caltag) at RT for 30 min, colonies were stained with anti-α6 integrin antibody (Chemicon International) at 4° C. overnight. Colonies were washed extensively with IF buffer, and stained with Alexa 568-labeled anti-rat IgG antibody at RT for 2 hr. Colonies were washed with IF buffer again, and nuclei were stained with DAPI at RT for 10 min. Slides were briefly washed with PBS and mounted with 50% glycerol in PBS.
To test whether increased glucose metabolism itself is required for oncogenic signaling events, we utilized 3D lrECM cultures of HMT-3522, a breast cancer progression series which includes non-malignant (S1) and malignant (T4-2) human breast epithelial cells from the same individual (Briand et al., 1987; Petersen et al., 1992; Rizki et al., 2008). Using these cells, we have described the involvement and reciprocity of multiple signaling pathways including EGFR, β1 integrin, PI3K-Akt and MEK-ERK in oncogenic events (Beliveau et al., 2010; Bissell et al., 2005). […] We thus used this “phenotypic reversion” of the cancer cells as an assay to examine how the signaling integration plan of the breast acini could involve glucose metabolism.

[9] = system: MDA-MB-231 cells; assay: In vitro invasive activity (Matrigel invasion chamber); format: cell-based, human; details: IA 40 μM, DON 20 μM, 17.5 mM glucose, 16 hours
Description: Invasive activity was examined using BD Biocoat GFR (growth factor reduced) Matrigel invasion chamber (BD Biosciences). Before the assay, lower surface of the membrane of the upper chamber was coated with collagen type I (10 μg/ml). MDA-MB-231 cells cultured on 2D plastic for two days with H14 medium containing different concentrations of glucose (17.5, 1.75 or 0 mM) or supplemented with metabolic inhibitors (40 μM IA or 20 μM DON, with 17.5 mM glucose) were detached by trypsinization, and 25,000 cells in each condition were seeded on the upper chambers. Both upper and lower chambers were filled with medium of the same formulations as that in each 2D culture. After 16 hours, cells were fixed with 4% PFA in PBS and stained with crystal violet.

[10] = system: Rap1; assay: Measurement of Rap1 activity (GST-RalGDS-RBD pull-down) in T4-2 cells; format: cell-based, human; details: T4-2 cells, 3D lrECM, IA 20 μM
Description: Rap1 activity was measured as described previously (Itoh et al., 2007). Briefly, cell colonies were extracted from lrECM as described above, and lysed in lysis buffer (50 mM Tris-HCl [pH 7.4], 500 mM NaCl, 1% NP40, 2.5 mM MgCl2, 10% glycerol, 10 μg/ml aprotinin and 10 μg/ml leupeptin) at 4° C. for 30 min. Lysates were cleared by centrifugation at 15,000×g at 4° C. for 15 min. Supernatants (containing 300 μg protein in 300 μl) were incubated with 15 μg of GST-tagged RalGDS-RBD fusion protein immobilized on Glutathione Sepharose 4B beads (GE Healthcare), at 4° C. for 1 hr. Beads were washed trice in lysis buffer and resuspended in Laemmli buffer. Samples were separated by SDS-PAGE, followed by transfer to polyvinylidene fluoride membranes (0.2 μm pore) and immunoblotting using anti-Rap1 antibody.

[11] = same inhibitor concentrations as E1

| Compound | mitochondrial activity (oxidation) [1] | reversion phenotype [2] | glucose uptake [3] | lactate production [4] | levels and/or activities of EGFR, β1 integrin, Akt and MEK (oncogenic signaling) ([5]; Western blot) | EGFR expression and activity ([5]; Azs 20 μM, DON 20 μM) | other signaling activities [6] | altered phenotype [7] | proliferation (total cell numbers) [7] | phenotypic reversion of the malignant phenotype [8] | basal polarity / organized acinar structures [8, 11] | growth / proliferation (cell numbers at the colony mid-section, EdU incorporation) [8, 11] | invasive property [9] | EGFR and MEK ([5]; basal medium 17.5 mM glucose, IA 20 μM, OX 50 mM) | Rap1 activity [10] |
| --- | --- | --- | --- | --- | --- | --- | --- | --- | --- | --- | --- | --- | --- | --- | --- |
| [N-]=[N+]=CC(=O)CC[C@H](N)C(=O)O [DON, 6-diazo-5-oxonorleucine] | remained unaltered | reversion phenotype was similar to that in T4-2 cells | significantly down-regulated | significantly down-regulated | suppression of activation of oncogenic signaling | significantly down-regulated | appreciable decrease | incomplete but still significant | appreciable decrease | do induce phenotypic reversion; also recorded: induced the repertoire of the reversion phenotype | re-establishment of tissue polarity | growth arrest | appreciable decrease |  |  |
| O=C(O)CI [IA, Iodoacetate] |  | reversion phenotype was similar to that in T4-2 cells |  |  |  |  | appreciable decrease | incomplete but still significant | appreciable decrease | do induce phenotypic reversion |  |  | appreciable decrease | not affected appreciably | down-regulation of Rap1 activity without a change in its total protein level |
